System: Ehrlich ascites carcinoma
Test: In vivo antitumor activity against Ehrlich ascites carcinoma
Parameters: species or system mouse
Conditions: for Number of animals in the group with tumor / Number of animals in the group without tumor: 14 mice per group
Description: Outbred mice were administered Ehrlich ascites carcinoma cells (EAC) intraperitoneally (IP) at a dose of 2.5×10^5 cells in 0.25 ml of normal saline solution. The compounds under study, 1)^85RbeE2, was dissolved in deuterium-depleted water and 2) Cisplatin (Teva, the Netherlands), was dissolved in normal saline solution. The drugs were administered starting from the first day after mice were inoculated with tumor cells, using a microinjection syringe, at the following doses: 1)^85Rbe-E2 at a dose of 750 μg/mouse (weighing 20 g) in a volume of 0.3 ml as 3 IP injections (1 injection—250 μg/mouse) on the 1st, 4th and 7th day of the experiment; 2) Cisplatin at a dose of 4.5 mg/kg or 1.5 mg/kg as 3 IP injections on the 2nd, 5th and 8th day of the experiment. The dynamics of tumor growth in the experimental animals was observed (based on the volume of ascites in the peritoneal cavity) after the tumor cell inoculation and for 31 days of the experiment. On the 15th and 22nd day after IP administration of tumor cells, all the fluid accumulated in each animal's abdomen was extracted and the total number of live/dead cells in each mouse was determined. In addition, some mice were used to assess a survival rate of animals in the experiment.
Laboratory animals. 84 outbred female 10 to 12-week old mice weighing 22-26 g were used in the experimental study. The animals were obtained from the animal vivarium at R.E. Kavetsky IEPOR NASU. […] The animals were maintained in plastic cages, under natural light-dark cycles, fed standard food and allowed free access to food and tap water.
Tumor model. Ascites strain of Ehrlich ascites carcinoma maintained on outbred mice obtained from the cell and tissue line bank at R.E. Kavetsky IEPOR NASU was used in the experiment. To prepare the strain for injection, tumor cells derived from ascitic fluid were placed in normal saline solution and cellularity of the suspension was assessed in a hemocytometer and adjusted to a concentration of 1·10^6 cells/ml with saline solution. The tumor cells were inoculated by injecting 250 mcl of cell suspension from the tumor (0.25×10^6 cells/mouse) into the peritoneal cavity of laboratory animals.
The drugs were administered IP every other day, using a microinjection syringe, at doses specified above as a series of 3 injections of each compound according to the following scheme: ^85Rbe-E2 at a dose of 250 μg/mouse weighing 20 g+CP at a dose of […] 24 hours later (for groups (EAC+CP(4.5)) and (EAC+^85Rbe-E2+CP(4.5)) or […] (for groups (EAC+CP(1.5)) and (EAC+^85Rbe-E2+CP(1.5)) in a volume of 0.25 ml of saline solution (6 injections in total during 8 days).
The tumor growth dynamics in the laboratory animals was observed by daily control of the volume of ascitic fluid in the abdominal cavity of mice starting from the tumor inoculation and for 31 days of the experiment. The dynamics of ascites growth both in control and experimental groups was assessed visually using a 10-point scale, where 0 points were the absence of tumor growth and 10 points were the maximum increase in the size of the abdomen of the mouse with ascites (one point was 0.6 cm of the mean diameter of the mouse abdomen filled with the fluid).
Furthermore, on the 15th and 22nd day after intraperitoneal injection of tumor cells, all ascitic fluid was removed from the abdomen in 2 or 3 animals from each group by washing their peritoneal cavity with saline solution, and live/dead EAC cells were counted in each mouse using the traditional vital dye trypan blue (HyClon, USA) and a hemocytometer.
X=((a)/80)×10^6, where X is the number of cells in 1 ml and a is the number of cells counted in 5 large diagonal squares of the hemocytometer.
7 or 8 mice from each group were used to assess their survival in the experiment. The total lifespan observation time was 31 days from the moment of inoculation of tumor cells.
Statistical data processing. […]

[1] = CP 1.5 mg/kg IP total (combination: + 85Rbe-E2 750 μg/mouse)
[2] = CP 4.5 mg/kg IP total (combination: + 85Rbe-E2 750 μg/mouse)
[3] = Day 15, CP 1.5 mg/kg IP total (combination: + 85Rbe-E2 750 μg/mouse)
[4] = Day 15, CP 4.5 mg/kg IP total (combination: + 85Rbe-E2 750 μg/mouse)
[5] = Day 22, CP 1.5 mg/kg IP total (combination: + 85Rbe-E2 750 μg/mouse)
[6] = Day 22, CP 4.5 mg/kg IP total (combination: + 85Rbe-E2 750 μg/mouse)

N.N.[Cl][Pt][Cl] [cisplatin]
Animals without tumor, % [1]: 0%
Number of animals in the group with tumor [1]: 14
Number of animals in the group without tumor [1]: 0
Animals without tumor, % [2]: 0%
Number of animals in the group with tumor [2]: 14
Number of animals in the group without tumor [2]: 0
Number of dead cells/mouse, % [3]: 9.5 ± 2.8%
Number of live cells/mouse, ×10^6 (M ± m) [3]: 1188 ± 116 ×10^6
Volume of ascites [3]: 5.2 ± 1.3 mL
Number of dead cells/mouse, % [4]: <1%
Number of live cells/mouse, ×10^6 (M ± m) [4]: 33.5 ± 11 ×10^6
Volume of ascites [4]: 0.4 ± 0.1 mL
Number of dead cells/mouse, % [5]: 11 ± 1%
Number of live cells/mouse, ×10^6 (M ± m) [5]: 1154 ± 429 ×10^6
Volume of ascites [5]: 14.4 ± 8.7 mL
Number of dead cells/mouse, % [6]: <3%
Number of live cells/mouse, ×10^6 (M ± m) [6]: 430 ± 250 ×10^6
Volume of ascites [6]: 2.8 ± 1.3 mL
Last day with statistically significant inhibition of EAC growth vs control (cisplatin 1.5 mg/kg (combination: + 85Rbe-E2)): 9 days
Suppression of tumor growth vs control (cisplatin 1.5 mg/kg mono-regime, only up to the 10th day): 32%
Suppression of tumor growth / decrease in tumor size vs control, average (cisplatin 4.5 mg/kg (combination: + 85Rbe-E2 total 750 mg/mouse as printed), throughout the observation period): 51.3%
Survival, percent of mice (day 0, CP 1.5 mg/kg IP total (combination: + 85Rbe-E2 750 μg/mouse)): 100%
Survival, percent of mice (day 0, CP 4.5 mg/kg IP total (combination: + 85Rbe-E2 750 μg/mouse)): 100%
Size of mouse abdomen, points (day 9, CP 1.5 mg/kg IP total (combination: + 85Rbe-E2 750 μg/mouse IP total)): 3.8 ± 0.8 points
Size of mouse abdomen, points (day 9, CP 4.5 mg/kg IP total (combination: + 85Rbe-E2 750 μg/mouse IP total)): 2.6 ± 0.2 points
Size of mouse abdomen, points (day 13, CP 1.5 mg/kg IP total (combination: + 85Rbe-E2 750 μg/mouse IP total)): 5.9 ± 1.1 points
Size of mouse abdomen, points (day 13, CP 4.5 mg/kg IP total (combination: + 85Rbe-E2 750 μg/mouse IP total)): 3.2 ± 0.3 points
Size of mouse abdomen, points (day 15, CP 1.5 mg/kg IP total (combination: + 85Rbe-E2 750 μg/mouse IP total)): 6.9 ± 0.4 points
Survival, percent of mice (day 15, CP 1.5 mg/kg IP total (combination: + 85Rbe-E2 750 μg/mouse)): 100%
Number of live cells in ascites as fraction of the control (day 15, CP 4.5 mg/kg (combination: + 85Rbe-E2), p<0.05): approximately 1/53
Size of mouse abdomen, points (day 15, CP 4.5 mg/kg IP total (combination: + 85Rbe-E2 750 μg/mouse IP total)): 3.1 ± 0.4 points
Survival, percent of mice (day 15, CP 4.5 mg/kg IP total (combination: + 85Rbe-E2 750 μg/mouse)): 100%
Number of live cells in ascites, times smaller than in the control (day 15, EAC+CP(4.5) group, p<0.05): 52 times
Size of mouse abdomen, points (day 17, CP 1.5 mg/kg IP total (combination: + 85Rbe-E2 750 μg/mouse IP total)): 7.4 ± 0.6 points
Survival, percent of mice (day 17, CP 1.5 mg/kg IP total (combination: + 85Rbe-E2 750 μg/mouse)): 100%
Size of mouse abdomen, points (day 17, CP 4.5 mg/kg IP total (combination: + 85Rbe-E2 750 μg/mouse IP total)): 3.4 ± 0.4 points
Survival, percent of mice (day 17, CP 4.5 mg/kg IP total (combination: + 85Rbe-E2 750 μg/mouse)): 87.5%
Survival, percent of mice (day 19, CP 1.5 mg/kg IP total (combination: + 85Rbe-E2 750 μg/mouse)): 100%
Survival, percent of mice (day 19, CP 4.5 mg/kg IP total (combination: + 85Rbe-E2 750 μg/mouse)): 87.5%
Size of mouse abdomen, points (day 20, CP 1.5 mg/kg IP total (combination: + 85Rbe-E2 750 μg/mouse IP total)): 8.1 ± 0.6 points
Size of mouse abdomen, points (day 20, CP 4.5 mg/kg IP total (combination: + 85Rbe-E2 750 μg/mouse IP total)): 4.8 ± 0.5 points
Size of mouse abdomen, points (day 22, CP 1.5 mg/kg IP total (combination: + 85Rbe-E2 750 μg/mouse IP total)): 8.2 ± 0.8 points
Survival, percent of mice (day 22, CP 1.5 mg/kg IP total (combination: + 85Rbe-E2 750 μg/mouse)): 100%
Size of mouse abdomen, points (day 22, CP 4.5 mg/kg IP total (combination: + 85Rbe-E2 750 μg/mouse IP total)): 4.7 ± 0.7 points
Survival, percent of mice (day 22, CP 4.5 mg/kg IP total (combination: + 85Rbe-E2 750 μg/mouse)): 75%
Size of mouse abdomen, points (day 24, CP 1.5 mg/kg IP total (combination: + 85Rbe-E2 750 μg/mouse IP total)): 8.6 ± 0.8 points
Survival, percent of mice (day 24, CP 1.5 mg/kg IP total (combination: + 85Rbe-E2 750 μg/mouse)): 100%
Size of mouse abdomen, points (day 24, CP 4.5 mg/kg IP total (combination: + 85Rbe-E2 750 μg/mouse IP total)): 5.2 ± 0.9 points
Survival, percent of mice (day 24, CP 4.5 mg/kg IP total (combination: + 85Rbe-E2 750 μg/mouse)): 75%
Survival, percent of mice (day 25, CP 1.5 mg/kg IP total (combination: + 85Rbe-E2 750 μg/mouse)): 100%
Survival, percent of mice (day 25, CP 4.5 mg/kg IP total (combination: + 85Rbe-E2 750 μg/mouse)): 75%
Survival, percent of mice (day 26, CP 1.5 mg/kg IP total (combination: + 85Rbe-E2 750 μg/mouse)): 100%
Survival, percent of mice (day 26, CP 4.5 mg/kg IP total (combination: + 85Rbe-E2 750 μg/mouse)): 75%
Size of mouse abdomen, points (day 27, CP 1.5 mg/kg IP total (combination: + 85Rbe-E2 750 μg/mouse IP total)): 8.4 ± 1 points
Survival, percent of mice (day 27, CP 1.5 mg/kg IP total (combination: + 85Rbe-E2 750 μg/mouse)): 87.5%
Size of mouse abdomen, points (day 27, CP 4.5 mg/kg IP total (combination: + 85Rbe-E2 750 μg/mouse IP total), listed as CP): 5.2±0.9 points
Survival, percent of mice (day 27, CP 4.5 mg/kg IP total (combination: + 85Rbe-E2 750 μg/mouse)): 75%
Survival, percent of mice (day 28, CP 1.5 mg/kg IP total (combination: + 85Rbe-E2 750 μg/mouse)): 75%
Survival, percent of mice (day 28, CP 4.5 mg/kg IP total (combination: + 85Rbe-E2 750 μg/mouse)): 75%
Size of mouse abdomen, points (day 29, CP 1.5 mg/kg IP total (combination: + 85Rbe-E2 750 μg/mouse IP total)): 8.4 ± 1 points
Survival, percent of mice (day 29, CP 1.5 mg/kg IP total (combination: + 85Rbe-E2 750 μg/mouse), listed as CP): 50%
Size of mouse abdomen, points (day 29, CP 4.5 mg/kg IP total (combination: + 85Rbe-E2 750 μg/mouse IP total)): 5.4 ± 0.9 points
Survival, percent of mice (day 29, CP 4.5 mg/kg IP total (combination: + 85Rbe-E2 750 μg/mouse), listed as CP): 75%
Size of mouse abdomen, points (day 31, CP 1.5 mg/kg IP total (combination: + 85Rbe-E2 750 μg/mouse IP total)): 7.9 ± 1.4 points
Survival, percent of mice (day 31, CP 1.5 mg/kg IP total (combination: + 85Rbe-E2 750 μg/mouse), listed as CP): 37.5%
Size of mouse abdomen, points (day 31, CP 4.5 mg/kg IP total (combination: + 85Rbe-E2 750 μg/mouse IP total)): 6 ± 1.3 points
Survival, percent of mice (day 31, CP 4.5 mg/kg IP total (combination: + 85Rbe-E2 750 μg/mouse), listed as CP): 62.5%
